Drawing on PubChem BioAssay AID1259407 (Chemical Carcinogenesis Research Information System (CCRIS), 2018), this text covers mutagenic call for four compounds.

Molecules are shown by their SMILES. Calls of active or inactive are those of the source. The rule behind the calls is not given here.

This data set relates to CCRIS mutagenicity, Ames/micronucleus/aberration tests. Description: CCRIS mutagenicity studies.
Setting [1] is: Test System: AMES SALMONELLA TYPHIMURIUM, Strain/Indicator: TA98, Metabolic Activation: NONE, Method: STANDARD PLATE.
[2] abbreviates: Test System: AMES SALMONELLA TYPHIMURIUM, Strain/Indicator: TA98, Metabolic Activation: RAT, LIVER, S-9, AROCLOR 1254, Method: STANDARD PLATE.
Setting [3] is: Test System: AMES SALMONELLA TYPHIMURIUM, Strain/Indicator: TA100, Metabolic Activation: NONE, Method: PREINCUBATION
Setting [4] is: Test System: AMES SALMONELLA TYPHIMURIUM, Strain/Indicator: TA100, Metabolic Activation: NONE, Method: STANDARD PLATE.
Setting [5] is: Test System: AMES SALMONELLA TYPHIMURIUM, Strain/Indicator: TA1535, Metabolic Activation: NONE, Method: STANDARD PLATE.
Where [6] appears, read: Test System: AMES SALMONELLA TYPHIMURIUM, Strain/Indicator: TA1535, Metabolic Activation: RAT, LIVER, S-9, AROCLOR 1254, Method: STANDARD PLATE.
The mark [7] stands for this setting: Test System: AMES SALMONELLA TYPHIMURIUM, Strain/Indicator: TA1538, Metabolic Activation: NONE, Method: STANDARD PLATE.
[8] abbreviates: Test System: AMES SALMONELLA TYPHIMURIUM, Strain/Indicator: TA1538, Metabolic Activation: RAT, LIVER, S-9, AROCLOR 1254, Method: STANDARD PLATE.
Setting [9] is: Test System: AMES SALMONELLA TYPHIMURIUM, Strain/Indicator: TA100, Metabolic Activation: RAT, LIVER, S-9, AROCLOR 1254, Method: STANDARD PLATE.

For the compound `O=NN1CCC[C@H]1c1cccnc1`, the mutagenic call reads like this: (Test System: AMES SALMONELLA TYPHIMURIUM, Strain/Indicator: TA98, Metabolic Activation: HAMSTER, LIVER, S-9, AROCLOR 1254, Method: STANDARD PLATE) “inactive; negative”; under setting [1], “inactive; negative”; under setting [2], “inactive; negative”; (Test System: AMES SALMONELLA TYPHIMURIUM, Strain/Indicator: TA100, Metabolic Activation: HAMSTER, LIVER, S-9, AROCLOR 1254, Method: STANDARD PLATE) “inactive; negative”; under setting [3], “active; positive”; under setting [4], “inactive; negative”. The mutagenic call by setting is: (Test System: AMES SALMONELLA TYPHIMURIUM, Strain/Indicator: TA100, Metabolic Activation: RABBIT, LUNG, CLARA CELLS, Method: PREINCUBATION) “inactive; negative”; (Test System: AMES SALMONELLA TYPHIMURIUM, Strain/Indicator: TA100, Metabolic Activation: RABBIT, LUNG, MACROPHAGES, Method: PREINCUBATION) “inactive; negative”; (Test System: AMES SALMONELLA TYPHIMURIUM, Strain/Indicator: TA100, Metabolic Activation: RABBIT, LUNG, S-9, Method: PREINCUBATION) “active; positive”; (Test System: AMES SALMONELLA TYPHIMURIUM, Strain/Indicator: TA100, Metabolic Activation: RABBIT, LUNG, TYPE II CELLS, Method: PREINCUBATION) “inactive; negative”; (Test System: AMES SALMONELLA TYPHIMURIUM, Strain/Indicator: TA100, Metabolic Activation: RAT LIVER S-9, AROCLOR 1254, Method: PREINCUBATION) “inactive; negative”; (Test System: AMES SALMONELLA TYPHIMURIUM, Strain/Indicator: TA1530, Metabolic Activation: RABBIT, LUNG, CLARA CELLS, Method: PREINCUBATION) “inactive; negative”. Besides, the mutagenic call runs as follows: (Test System: AMES SALMONELLA TYPHIMURIUM, Strain/Indicator: TA1530, Metabolic Activation: RABBIT, LUNG, MACROPHAGES, Method: PREINCUBATION) “inactive; negative”; (Test System: AMES SALMONELLA TYPHIMURIUM, Strain/Indicator: TA1530, Metabolic Activation: RABBIT, LUNG, S-9, Method: PREINCUBATION) “active; positive”; (Test System: AMES SALMONELLA TYPHIMURIUM, Strain/Indicator: TA1530, Metabolic Activation: RABBIT, LUNG, TYPE II CELLS, Method: PREINCUBATION) “inactive; negative”; (Test System: AMES SALMONELLA TYPHIMURIUM, Strain/Indicator: TA1535, Metabolic Activation: HAMSTER, LIVER, S-9, AROCLOR 1254, Method: STANDARD PLATE) “active; positive”; under setting [5], “inactive; negative”; under setting [6], “inactive; negative”. For the same compound, the mutagenic call is, setting by setting: (Test System: AMES SALMONELLA TYPHIMURIUM, Strain/Indicator: TA1537, Metabolic Activation: HAMSTER, LIVER, S-9, AROCLOR 1254, Method: STANDARD PLATE) “inactive; negative”; (Test System: AMES SALMONELLA TYPHIMURIUM, Strain/Indicator: TA1537, Metabolic Activation: NONE, Method: STANDARD PLATE) “inactive; negative”; (Test System: AMES SALMONELLA TYPHIMURIUM, Strain/Indicator: TA1537, Metabolic Activation: RAT, LIVER, S-9, AROCLOR 1254, Method: STANDARD PLATE) “inactive; negative”; (Test System: AMES SALMONELLA TYPHIMURIUM, Strain/Indicator: TA1538, Metabolic Activation: HAMSTER, LIVER, S-9, AROCLOR 1254, Method: STANDARD PLATE) “inactive; negative”; under setting [7], “inactive; negative”; under setting [8], “inactive; negative”. Moreover, the mutagenic call was “inactive; negative” (Test System: AMES SALMONELLA TYPHIMURIUM, Strain/Indicator: TA7004, Metabolic Activation: HAMSTER LIVER S-9, AROCLOR 1254, Method: PREINCUBATION); “active; positive” (Test System: AMES SALMONELLA TYPHIMURIUM, Strain/Indicator: TA7004, Metabolic Activation: NONE, Method: PREINCUBATION); “inactive; negative” (Test System: AMES SALMONELLA TYPHIMURIUM, Strain/Indicator: TA7004, Metabolic Activation: RAT LIVER S-9, AROCLOR 1254, Method: PREINCUBATION); “inactive; negative” (Test System: CHINESE HAMSTER V-79, Strain/Indicator: V-79 (HPRT)/6-THIOGUANINE, Metabolic Activation: RAT, HEPATOCYTES); “inactive; negative” (Test System: CHINESE HAMSTER V-79, Strain/Indicator: V-79 (HPRT)/6-THIOGUANINE, Metabolic Activation: RAT, LIVER, S-9, AROCLOR 1254); “inactive; negative” (Test System: UDS RABBIT LUNG CLARA CELLS, Strain/Indicator: THY INCORP, Metabolic Activation: NONE, Method: LIQUID SCINTILLATION COUNTING). Besides, the mutagenic call is, setting by setting: (Test System: UDS RABBIT LUNG MACROPHAGES, Strain/Indicator: THY INCORP, Metabolic Activation: NONE, Method: LIQUID SCINTILLATION COUNTING) “inactive; negative”; (Test System: UDS RABBIT LUNG TYPE II CELLS, Strain/Indicator: THY INCORP, Metabolic Activation: NONE, Method: LIQUID SCINTILLATION COUNTING) “inactive; negative”; (Test System: UDS RODENT HEPATOCYTES, Strain/Indicator: THY INCORP (NON-S-PHASE), Method: AUTORADIOGRAPHY) “active; positive”.

`O=C(O)CC[C@H](NC(=O)COc1cc(Cl)c(Cl)cc1Cl)C(=O)O`: the mutagenic call reads like this: (Test System: AMES SALMONELLA TYPHIMURIUM, Strain/Indicator: TA97, Metabolic Activation: NONE, Method: STANDARD PLATE) “inactive; negative”; (Test System: AMES SALMONELLA TYPHIMURIUM, Strain/Indicator: TA97, Metabolic Activation: RAT, LIVER, S-9, AROCLOR 1254, Method: STANDARD PLATE) “inactive; negative”; under setting [1], “inactive; negative”; under setting [2], “inactive; negative”; under setting [4], “inactive; negative”; under setting [9], “inactive; negative”. Also, the mutagenic call reads like this: under setting [5], “inactive; negative”; under setting [6], “inactive; negative”; under setting [7], “inactive; negative”; under setting [8], “inactive; negative”.

On to `Cc1c([N+](=O)[O-])c2ccccc2c2ccc3ccccc3c12`, for which the mutagenic call was “inactive; negative” (Test System: AMES SALMONELLA TYPHIMURIUM, Strain/Indicator: TA98, Metabolic Activation: NONE, Method: PREINCUBATION); “active; positive” (Test System: AMES SALMONELLA TYPHIMURIUM, Strain/Indicator: TA98, Metabolic Activation: RAT, LIVER, S-9, Method: PREINCUBATION); “inactive; negative” under setting [3]; “inactive; negative” under setting [4]; “active; positive” under setting [9]; “active; positive” (Test System: AMES SALMONELLA TYPHIMURIUM, Strain/Indicator: TA100, Metabolic Activation: RAT, LIVER, S-9, Method: PREINCUBATION).

Turning to `O=[N+]([O-])c1ccc2ccc3cc4c(c5ccc1c2c35)CCCC4O` (stereo not given), the mutagenic call under setting [1] is “active; positive”.
